Laboratory results published in ChEMBL document CHEMBL1201862, “PubChem BioAssay data set” (2004).
The source made the active and inactive calls.

Tests used:
[1] = biological target: G-protein coupled receptor 55 (Homo sapiens, UniProt Q9Y2T6); assay: selective activators of receptor GPR55 – imaging, U2OS cells, beta-arrestin-GFP redistribution, primary screen (AID 1961); type: functional
[2] = biological target: DNA dC->dU-editing enzyme APOBEC-3A (Homo sapiens, UniProt P31941); assay: A3A deaminase inhibition for selectivity – biochemical, dose response (AID 504722); type: functional
DNA dC->dU-editing enzyme APOBEC-3A, sequence (P31941 whole entry): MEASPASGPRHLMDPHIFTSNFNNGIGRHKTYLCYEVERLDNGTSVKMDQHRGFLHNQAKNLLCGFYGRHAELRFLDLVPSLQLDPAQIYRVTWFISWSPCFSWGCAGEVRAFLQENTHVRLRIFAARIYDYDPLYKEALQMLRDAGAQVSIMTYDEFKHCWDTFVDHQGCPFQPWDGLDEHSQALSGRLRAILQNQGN

[3] = biological target: DNA dC->dU-editing enzyme APOBEC-3G (Homo sapiens, UniProt Q9HC16); assay: Dose Response confirmation of small molecule APOBEC3G DNA Deaminase Inhibitors via a fluorescence-based single-stranded DNA deaminase assay. [Related pubchem assays (depositor defined):AID493012, AID493028]; type: functional
DNA dC->dU-editing enzyme APOBEC-3G, sequence (Q9HC16 whole entry): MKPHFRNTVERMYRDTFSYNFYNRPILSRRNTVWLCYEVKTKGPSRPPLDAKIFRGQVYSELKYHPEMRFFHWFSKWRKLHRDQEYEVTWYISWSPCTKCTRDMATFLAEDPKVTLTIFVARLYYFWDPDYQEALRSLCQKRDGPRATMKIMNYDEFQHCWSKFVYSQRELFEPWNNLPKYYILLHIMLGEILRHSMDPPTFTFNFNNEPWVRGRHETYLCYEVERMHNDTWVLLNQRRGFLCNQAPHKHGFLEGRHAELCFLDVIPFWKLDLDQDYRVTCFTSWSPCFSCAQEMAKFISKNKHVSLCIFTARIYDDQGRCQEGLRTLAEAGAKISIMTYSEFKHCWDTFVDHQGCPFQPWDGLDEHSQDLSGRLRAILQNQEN

[4] = HGIII-sPLA2 enzyme inhibition potency – biochemical, QFRET, IC50, dose response (AID 743457);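 further: green fluorescence rise as the enzyme cleaves BODIPY PC-A2 in liposomes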

G-protein coupled receptor 55, sequence (Q9Y2T6 whole entry): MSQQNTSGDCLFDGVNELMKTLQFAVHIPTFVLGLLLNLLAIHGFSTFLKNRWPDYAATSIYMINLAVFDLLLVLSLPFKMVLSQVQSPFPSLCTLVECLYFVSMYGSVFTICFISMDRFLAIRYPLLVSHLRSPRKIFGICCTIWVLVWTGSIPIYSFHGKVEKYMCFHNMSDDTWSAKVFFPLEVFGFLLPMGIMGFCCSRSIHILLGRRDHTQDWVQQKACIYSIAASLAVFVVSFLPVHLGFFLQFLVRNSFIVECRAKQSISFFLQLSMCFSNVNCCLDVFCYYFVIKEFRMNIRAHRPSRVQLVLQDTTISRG

EC50 [1]	Compound	IC50 [2]	IC50 [3]	IC50 [4]
15.4 µM (inactive)	O=C(Oc1ccccc1/C=C\C(=O)c1cc2ccccc2o1)c1ccccc1			
	CCn1c(S)nnc1-c1cccc(Br)c1	> 100 µM (inactive)	4.37 µM (active)	> 122 µM (inactive)
